Data published in ChEMBL document CHEMBL5518186, “Discovery of the cereblon-recruiting tubulin PROTACs effective in overcoming Taxol resistance in vitro and in vivo” (Eur J Med Chem, 2024).
Activity calls are given as the source filed them. The calls are words filed in the database; no cut-off is given here.

Legend:
A549 [1] = experiment: Antiproliferative activity against human A549 cells incubated for 72 hrs; assay type: functional, cell-based; settings: A549, 72 h
HepG2 [2] = experiment: Antiproliferative activity against human HepG2 cells incubated for 72 hrs; assay type: functional, cell-based; settings: HepG2, 72 h
U-937 = experiment: Antiproliferative activity against human U-937 cells incubated for 72 hrs; assay type: functional, cell-based; settings: U-937, 72 h
[3] = molecular target: T1, Protein cereblon/Tubulin beta-3 chain (Homo sapiens, UniProt Q13509+Q96SW2); experiment: Protac activity at CRBN/beta3-tubulin in human A549 cells assessed as reduction in beta3-tubulin level incubated for 48 hrs by immunoblotting analysis; assay type: cell-based
[4] = molecular target: T2, Protein cereblon-alpha tubulin (Homo sapiens) (UniProt P0DPH7+P68366+Q71U36+P68363+Q9BQE3+Q6PEY2+A6NHL2+Q9NY65+Q96SW2); experiment: (§1) Protac activity at CRBN/alpha-tubulin in human A549/Taxol cells assessed as reduction in alpha-tubulin level incubated for 48 hrs by immunoblotting analysis; assay type: cell-based
[5] = molecular target: Protein cereblon-alpha tubulin; experiment: as §1; assay type: cell-based
[6] = molecular target: T1, Protein cereblon/Tubulin beta-3 chain; experiment: Protac activity at CRBN/beta3-tubulin in human A549/Taxol cells assessed as reduction in beta3-tubulin level incubated for 48 hrs by immunoblotting analysis; assay type: cell-based
[7] = molecular target: T3, Protein cereblon/Tubulin beta (Homo sapiens) (UniProt P68371+Q9H4B7+Q13509+P04350+Q3ZCM7+P07437+Q13885+Q9BVA1+Q9BUF5+Q96SW2+A6NNZ2); experiment: Protac activity at CRBN/beta-tubulin in human MCF7 cells assessed as reduction in beta-tubulin level at 10 to 1000 nM incubated for 48 hrs by immunoblotting analysis; assay type: cell-based; settings: dose 10-1000 nM
[8] = molecular target: T3, Protein cereblon/Tubulin beta (Homo sapiens); experiment: Protac activity at CRBN/beta-tubulin in human A549 cells assessed as reduction in beta-tubulin level at 0.25 uM by immunoblotting analysis; assay type: cell-based; settings: time 6-72 hrs, TDE = time-dependent effect
[9] = molecular target: T2, Protein cereblon-alpha tubulin (Homo sapiens); experiment: Protac activity at CRBN/alpha-tubulin in human A549 cells assessed as reduction in alpha-tubulin level at 0.25 uM pretreated for 48 hrs followed by compound washout and measured upto 24 hrs by immunoblotting analysis; assay type: cell-based
[10] = molecular target: T2, Protein cereblon-alpha tubulin (Homo sapiens); experiment: Protac activity at CRBN/alpha-tubulin in human A549 cells assessed as reduction in alpha-tubulin level at 0.25 uM pretreated with MG-132 followed by compound addition and measured after 24 hrs by immunoblotting analysis; assay type: cell-based
[11] = molecular target: T3, Protein cereblon/Tubulin beta (Homo sapiens); experiment: Protac activity at CRBN/beta-tubulin in human A549 cells assessed as reduction in beta-tubulin level at 0.25 uM pretreated with pomalidomide for 2 hrs followed by compound addition and measured after 24 hrs by immunoblotting analysis; assay type: cell-based
[12] = molecular target: T2, Protein cereblon-alpha tubulin (Homo sapiens); experiment: Protac activity at CRBN/alpha-tubulin in human A549/Taxol cells assessed as reduction in alpha-tubulin level at 0.25 uM pretreated with MG-132 followed by compound addition and measured after 48 hrs by immunoblotting analysis; assay type: cell-based
[13] = molecular target: T3, Protein cereblon/Tubulin beta (Homo sapiens); experiment: Protac activity at CRBN/beta-tubulin in human A549/Taxol cells assessed as reduction in beta-tubulin level at 0.25 uM pretreated with MG-132 followed by compound addition and measured after 48 hrs by immunoblotting analysis; assay type: cell-based
[14] = molecular target: T2, Protein cereblon-alpha tubulin (Homo sapiens); experiment: Protac activity at CRBN/alpha-tubulin in human A549/Taxol cells assessed as reduction in alpha-tubulin level at 0.25 uM pretreated with pomalidomide for 2 hrs followed by compound addition and measured after 48 hrs by immunoblotting analysis; assay type: cell-based
[15] = molecular target: T2, Protein cereblon-alpha tubulin (Homo sapiens); experiment: Protac activity at CRBN/alpha-tubulin in human A549/Taxol cells assessed as reduction in alpha-tubulin level at 0.25 uM pretreated with CA-4 for 2 hrs followed by compound addition and measured after 48 hrs by immunoblotting analysis; assay type: cell-based
A549/TR [16] = experiment: Inhibition of cell growth in human A549/Taxol cells incubated for 72 hrs by SRB method; assay type: functional, cell-based
MCF7 = experiment: Inhibition of cell growth in human MCF7 cells incubated for 72 hrs by SRB method; assay type: functional, cell-based; settings: MCF7, 72 h
HEK-293T = experiment: Cytotoxicity against HEK293T cells assessed as effect on cell viability at 20 uM; assay type: toxicity, cell-based; settings: human
A549 [17] = experiment: Induction of cell cycle arrest in human A549 cells assessed as accumulation of cells at S phase at 0.002 uM incubated for 24 hrs by PI staining based flow cytometry analysis (reference value: 1.39%); assay type: functional
A549 [18] = experiment: Induction of cell cycle arrest in human A549 cells assessed as accumulation of cells at G0/G1 phase at 0.01 uM incubated for 24 hrs by PI staining based flow cytometry analysis (reference value: 66.75%); assay type: functional
A549 [19] = experiment: Induction of cell cycle arrest in human A549 cells assessed as accumulation of cells at S phase at 0.01 uM incubated for 24 hrs by PI staining based flow cytometry analysis (reference value: 1.39%); assay type: functional
A549 [20] = experiment: Induction of cell cycle arrest in human A549 cells assessed as accumulation of cells at G0/G1 phase at 0.05 uM incubated for 24 hrs by PI staining based flow cytometry analysis (reference value: 66.75%); assay type: functional
A549 [21] = experiment: Induction of cell cycle arrest in human A549 cells assessed as accumulation of cells at S phase at 0.05 uM incubated for 24 hrs by PI staining based flow cytometry analysis (reference value: 1.39%); assay type: functional
A549 [22] = experiment: Induction of cell cycle arrest in human A549 cells assessed as accumulation of cells at G2/M phase at 0.05 uM incubated for 24 hrs by PI staining based flow cytometry analysis (reference value: 31.86%); assay type: functional
A549/TR [23] = experiment: Induction of cell cycle arrest in human A549/Taxol cells assessed as accumulation of cells at S phase at 0.002 uM incubated for 24 hrs by PI staining based flow cytometry analysis (reference value: 2.85%); assay type: functional
A549/TR [24] = experiment: Induction of cell cycle arrest in human A549/Taxol cells assessed as accumulation of cells at G0/G1 phase at 0.05 uM incubated for 24 hrs by PI staining based flow cytometry analysis (reference value: 77.86%); assay type: functional
A549 [25] = experiment: Induction of apoptosis in human A549 cells assessed as increase in apoptotic rate at 0.002 uM incubated for 48 hrs by Annexin V-FITC/PI staining based flow cytometry analysis (reference value: 1.3%); assay type: functional
A549 [26] = experiment: Antitumor activity against human A549 cells xenografted in nude mouse assessed as decrease in tumor weight at 15 mg/kg, ip administered once every 2 days for 23 days by Vernier caliper method; assay type: functional, organism-based; settings: time 23.0 day
A549/TR [27] = experiment: Antitumor activity against human A549/Taxol cells xenografted in nude mouse assessed as tumor growth inhibition at 15 mg/kg, ip administered once every 2 days for 23 days by Vernier caliper method; assay type: functional; settings: 552 h, time 23 day, read-out: TGI
HepG2 [28] = experiment: Inhibition of cell proliferation in human HepG2 cells; assay type: functional, cell-based
HepG2 [29] = experiment: Inhibition of DNA synthesis in human HepG2 cells; assay type: functional, cell-based
HepG2 [30] = experiment: Induction of apoptosis in human HepG2 cells; assay type: functional, cell-based
HepG2 [31] = experiment: Induction of intracellular ROS generation in human HepG2 cells; assay type: functional, cell-based
HepG2 [32] = experiment: Inhibition of cell migration in human HepG2 cells; assay type: functional, cell-based
HepG2 [33] = experiment: Inhibition of cell invasion in human HepG2 cells; assay type: functional, cell-based

- IC50 (A549 [1]): 10 nM
- IC50 (HepG2 [2]): 4 nM
- IC50 (U-937): 18 nM
- Activity [3]: Dose-Dependent Effect
- DC50 [3]: 251 nM
- Activity [4]: Dose-Dependent Effect
- DC50 [5]: 32 nM
- Activity [6]: Dose-Dependent Effect
- DC50 [6]: 5 nM
- Activity [7]: Active
- Activity [8]: Tde
- Activity [9]: Active
- Activity [10]: inactive
- Activity [11]: inactive
- Activity [12]: inactive
- Activity [13]: inactive
- Activity [14]: inactive
- Activity [15]: inactive
- IC50 (A549/TR [16]): 5 nM
- IC50 (MCF7): 12 nM
SMILES: COc1ccc(/C=C\c2cc(OC)c(OC)c(OC)c2)cc1OC(=O)CCCNc1cccc2c1C(=O)N(C1CCC(=O)NC1=O)C2=O (centres undefined)
- inhibition (A549/TR [16]): Dose-Dependent Effect
- Activity (HEK-293T): Non-Toxic
- Activity (A549 [17]): 5.65%
- Activity (A549 [18]): 16.29%
- Activity (A549 [19]): 15.35%
- Activity (A549 [20]): 10.15%
- Activity (A549 [21]): 16.44%
- Activity (A549 [22]): 73.41%
- Activity (A549/TR [23]): 7.68%
- Activity (A549/TR [24]): 30%
- Activity (A549 [25]): 7.23%
- Activity (A549 [26]): Active
- inhibition in vivo at 15 mg/kg (A549/TR [27]): 65.8%
- inhibition (HepG2 [28]): Active
- inhibition (HepG2 [29]): Dose-Dependent Effect
- Activity (HepG2 [30]): Active
- Activity (HepG2 [31]): Active
- inhibition (HepG2 [32]): Dose-Dependent Effect
- inhibition (HepG2 [33]): Dose-Dependent Effect
